Results: ChEMBL document CHEMBL1641434, “Topical anti-inflammatory activity of boropinic acid and its natural and semi-synthetic derivatives” (2011)

Experiments:
Assay type in all cases: functional
[1] = test system: Mus musculus; assay: Antiinflammatory activity in CD1 mouse assessed as inhibition of croton oil-induced ear edema at 0.3 umol administered topically per cm'2 of ear relative to control
[2] = test system: Mus musculus; assay: Antiinflammatory activity in CD1 mouse assessed as inhibition of croton oil-induced ear edema at 0.1 umol administered topically per cm'2 of ear relative to control
[3] = test system: Mus musculus; assay: Antiinflammatory activity in CD1 mouse assessed as inhibition of croton oil-induced ear edema per cm'2 administered topically
[4] = test system: Mus musculus; assay: Antiinflammatory activity in CD1 mouse assessed as inhibition of croton oil-induced ear edema at 1 umol administered topically per cm'2 of ear relative to control

Compound | inhibition (INH) [1] | inhibition (INH) [2] | ID50 [3] | inhibition (INH) [4]
CC(C)=CCOc1ccc(/C=C/C(=O)O)cc1[N+](=O)[O-] | 68% | 33% | 0.18 µmol | 91%
CC(C)=CCOc1ccc(/C=C/C(=O)O)cc1C | 23% | – | – | –
CC(C)=CCOc1ccc(/C=C/C(=O)O)cc1Cl | 49% | 25% | 0.26 µmol | 91%
CC(C)=CCOc1ccc(/C=C/C(=O)O)cc1F | 39% | – | – | –
CC(C)=CCOc1ccc(/C=C/C(=O)O)cc1Br | 19% | – | – | –
CC(C)=CCOc1ccc(/C=C/C(=O)O)cc1I | 67% | 30% | 0.2 µmol | 88%
CC(Cc1ccc(O)c(O)c1)C(C)Cc1ccc(O)c(O)c1 (stereo not given) [NORDIHYDROGUAIARETIC ACID] | 33% | 19% | 0.54 µmol | 65%
COc1cc(/C=C/C(=O)O)ccc1OCC=C(C)C [BOROPINIC ACID] | 36% | 12% | 0.72 µmol | 55%
COc1ccc2c(c1)c(CC(=O)O)c(C)n2C(=O)c1ccc(Cl)cc1 [INDOMETHACIN] | 62% | 26% | 0.23 µmol | 87%
CC(C)=CCOc1ccc(/C=C/C(=O)O)cc1N | 43% | 22% | 0.33 µmol | 81%
CC(C)=CCOc1ccc(/C=C/C(=O)O)cc1 | 30% | 13% | 0.5 µmol | 67%
